Assay results: patent publication US20080234266A1, “Squaric Acid Derivatives II” (priority 2005, published 2008)

molecular target: T1, CHK1 kinase (Homo sapiens, UniProt O14757); experiment: Flashplate method (CHK1), measurement of the CHK1 kinase activity; type: biochemical; details: class symbols; 'Affinity to receptors'
T1 construct: glutathione S-transferase (GST); made in house; host or cells: Sf21 insect cells (S. frugiperda), baculovirus
T1 sequence (O14757 1-476): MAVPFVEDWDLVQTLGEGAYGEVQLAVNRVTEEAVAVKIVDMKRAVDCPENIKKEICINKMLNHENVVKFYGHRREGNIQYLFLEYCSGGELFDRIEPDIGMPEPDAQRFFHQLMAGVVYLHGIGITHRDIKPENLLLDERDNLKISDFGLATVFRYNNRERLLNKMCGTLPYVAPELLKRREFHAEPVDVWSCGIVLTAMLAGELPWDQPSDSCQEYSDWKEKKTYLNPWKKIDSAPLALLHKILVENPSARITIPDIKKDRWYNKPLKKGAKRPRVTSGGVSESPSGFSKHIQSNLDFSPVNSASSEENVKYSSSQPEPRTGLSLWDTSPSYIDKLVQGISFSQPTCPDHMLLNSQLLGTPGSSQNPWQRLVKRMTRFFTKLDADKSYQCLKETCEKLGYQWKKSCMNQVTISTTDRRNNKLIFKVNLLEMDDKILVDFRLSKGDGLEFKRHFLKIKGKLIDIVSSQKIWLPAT
Method in brief: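 GST-tagged CHK1 expressed in Sf21 insect cells, incubated at 30 °C with biotinylated CHKtide (0.15 μg per well) and γ33P-ATP in pH 7.5 buffer (EGTA, Mg acetate, mercaptoethanol, 0.1% BSA). Stopped with EDTA, captured on streptavidin Flashplates and counted by scintillation. IC50 set against uninhibited reaction and 0.1 μM staurosporine as zero.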

Row | Molecule | IC50 [µM]
1 | CC(Nc1c(Nc2ccc3[nH]ncc3c2)c(=O)c1=O)c1cccc(NC(N)=O)c1 (racemic) [Compound A145, 3-(1H-indazol-5-ylamino)-4-[(R,S)-1-(3-ureidophenyl)ethylamino]cyclobut-3-ene-1,2-dione] | > 1
2 | O=c1c(NCc2cc(Br)ccc2O)c(Nc2ccc3[nH]cnc3c2)c1=O [Compound A36, 3-(1H-benzimidazol-5-ylamino)-4-(3-bromo-6-hydroxybenzylamino)cyclobut-3-ene-1,2-dione] | > 1
3 | Cc1cc2cc(Nc3c(NCc4cccc(O)c4)c(=O)c3=O)ccc2[nH]1 [Compound A39, 3-(2-methyl-1H-indol-5-ylamino)-4-(3-hydroxybenzylamino)cyclobut-3-ene-1,2-dione] | > 1
4 | CN(C)Cc1c[nH]c2cc(CNc3c(Nc4ccc5[nH]cnc5c4)c(=O)c3=O)ccc12 [Compound A96, 3-(1H-benzimidazol-5-ylamino)-4-[(3-dimethylaminomethyl-1H-indol-6-ylmethyl)-amino]cyclobut-3-ene-1,2-dione] | > 1
5 | O=c1c(NCc2cccc(O)c2)c(Nc2ccc3[nH]c(S)nc3c2)c1=O [Compound A40, 3-(2-mercapto-1H-benzimidazol-5-ylamino)-4-(3-hydroxybenzylamino)cyclobut-3-ene-1,2-dione] | > 1
6 | O=c1c(NCc2cc(O)cc(O)c2)c(Nc2ccc3[nH]cnc3c2)c1=O [Compound A94, 3-(1H-benzimidazol-5-ylamino)-4-(3,5-di-hydroxybenzylamino)cyclobut-3-ene-1,2-dione] | < 1
7 | O=c1c(NCc2cccc(O)c2)c(Nc2ccc3scnc3c2)c1=O [Compound A119, 3-(benzothiazol-5-ylamino)-4-(3-hydroxy-benzylamino)cyclobut-3-ene-1,2-dione] | > 1
8 | 3-(8-bromoimidazo[1,2-a]pyridin-6-ylamino)-4-[(R)-1-(3-methoxyphenyl)ethylamino]-cyclobut-3-ene-1,2-dione [Compound A63] | > 1
9 | CC(=O)NCCOc1cccc(CNc2c(Nc3ccc4[nH]cnc4c3)c(=O)c2=O)c1 [Compound A109, 3-(1H-benzimidazol-5-ylamino)-4-[3-(2-acetamidoethoxy)benzylamino]cyclobut-3-ene-1,2-dione] | > 1
10 | O=C(O)CC(Nc1c(Nc2ccc3[nH]cnc3c2)c(=O)c1=O)c1cccc(O)c1 (centres unmarked) [Compound A99, 3-[2-(1H-benzimidazol-5-ylamino)-3,4-dioxo-cyclobut-1-enylamino]-3-(3-hydroxyphenyl)-propionic acid] | > 1
11 | CS(=O)(=O)c1ccc(CNc2c(Nc3ccc4[nH]cnc4c3)c(=O)c2=O)cc1 [Compound A150, 3-(1H-benzimidazol-5-ylamino)-4-(4-methyl-sulfonylbenzylamino)cyclobut-3-ene-1,2-dione] | > 1

Next, values leading:

Row | IC50 [µM] | Molecule
12 | < 1 | O=c1c(NCc2ccc(O)c(O)c2)c(Nc2ccc3[nH]cnc3c2)c1=O [Compound A87, 3-(1H-benzimidazol-5-ylamino)-4-(3,4-di-hydroxybenzylamino)cyclobut-3-ene-1,2-dione]
13 | > 1 | CCn1c2ccccc2c2cc(Nc3c(NCc4cccc(O)c4)c(=O)c3=O)ccc21 [Compound A47, 3-(9-ethyl-9H-carbazol-3-ylamino)-4-(3-hydroxybenzylamino)cyclobut-3-ene-1,2-dione]
14 | > 1 | CS(=O)(=O)Nc1ccc(CNc2c(Nc3ccc4[nH]cnc4c3)c(=O)c2=O)cc1 [Compound A156, 3-(1H-benzimidazol-5-ylamino)-4-(4-methyl-sulfonylaminobenzylamino)cyclobut-3-ene-1,2-dione]
15 | > 1 | Cc1c(O)cccc1CNc1c(Nc2ccc3[nH]cnc3c2)c(=O)c1=O [Compound A97, 3-(1H-benzimidazol-5-ylamino)-4-(3-hydroxy-2-methylbenzylamino)cyclobut-3-ene-1,2-dione]
16 | > 1 | CCOc1ccc(O)cc1CNc1c(Nc2ccc3[nH]cnc3c2)c(=O)c1=O [Compound A93, 3-(1H-benzimidazol-5-ylamino)-4-(2-ethoxy-5-hydroxybenzylamino)cyclobut-3-ene-1,2-dione]
17 | > 1 | O=c1[nH]c2ccc(CNc3c(Nc4ccc5[nH]cnc5c4)c(=O)c3=O)cc2[nH]1 [Compound A80, 3-(1H-benzimidazol-5-ylamino)-4-[(2-oxo-2,3-dihydro-1H-benzimidazol-5-ylmethyl)amino]-cyclobut-3-ene-1,2-dione]
18 | > 1 | CNS(=O)(=O)c1ccc(CN(C)c2c(Nc3ccc4[nH]cnc4c3)c(=O)c2=O)cc1 [Compound A153, 3-(1H-benzimidazol-5-ylamino)-4-[4-(N-methylaminosulfonyl)benzyl-N-methylamino]-cyclobut-3-ene-1,2-dione]
19 | > 1 | CN1CCN(c2ccc(CNc3c(Nc4ccc5[nH]cnc5c4)c(=O)c3=O)cc2)CC1 [Compound A141, 3-(1H-benzimidazol-5-ylamino)-4-[4-(4-methylpiperazin-1-yl)benzylamino]cyclobut-3-ene-1,2-dione]
20 | > 1 | NC(=O)c1cccc(CNc2c(Nc3ccc4[nH]cnc4c3)c(=O)c2=O)c1 [Compound A95, 3-(1H-benzimidazol-5-ylamino)-4-(3-amino-carbonylbenzylamino)cyclobut-3-ene-1,2-dione]
